Results: patent US20240207361A1, “ERYTHROPOIETIN-DERIVED PEPTIDES FOR TREATING RELAPSING-REMITTING MULTIPLE SCLEROSIS” (The United States Government as represented by the …, priority 2021, published 2024)
Entries after “also recorded” stand apart in the source; their conditions may differ.

What was measured:
[1] = system: MOG-induced EAE GFAP-Luc/C57 mice; assay: Clinical neurologic scoring in MOG-induced monophasic EAE; type: in vivo, mouse; conditions: for clinical score compared to sham treated: 5 μg IV daily for 12 days from day 9, n=8 per group
Description: (§1) Methods. Animals. Male FVB/N-Tg (GFAP-luc+/−) mice (Xenogen Corp, Alameda, CA) were crossed with either albino C57BL/6J-Tyrc-2j or SJL/J mice purchased from Charles River Laboratories (Wilmington, MA). The FI offspring were genotyped by PCR following the manufacturer's protocol. Female mice between 8-10 weeks of age positive for GFAP (GFAP-luc/C57 or GFAP-Luc/SJL) expression were used.
Induction of EAE and clinical assessment of animals. Active EAE was induced according to a standard protocol (Smith M, et al. Brain Research 1983:264:241-53). Mice were immunized on Day 0 by subcutaneous injection on both sides of the tail base with 100 μL of an emulsion composed of either PLP139-151 or MOG35-55 peptide in an equal volume of Freund's adjuvant, supplemented with 4 mg/mL killed M. tuberculosis H37Ra (Difco Laboratories, Detroit, MI). The initial dose of antigen was 100 μg of PLP peptide for inducing relapsing EAE in SJL/J mice, or 200 μg of MOG peptide per C57BL/6 mouse for induction of acute monophasic EAE. GFAP-Luc/SJL/J mice received a second PLP antigen immunization on Day 7. Immediately following these immunizations, mice received intravenous (IV) injections of 200 ng Bordetella pertussis toxin diluted in 200 μL phosphate buffered saline (PBS) (List Biological Laboratories, Campbell, CA). […] Animals were weighed and assessed daily for clinical signs of EAE by two blinded independent observers during the acute phase of illness, and followed three times a week during the later chronic phase. The monophasic EAE MOG C57BL6 model was monitored for 28-30 days and the PLP SJL/J relapsing model was followed for nearly 6 months after immunization. The clinical scoring system used to quantify behavioral neurological deficits in the EAE mouse models (Table 2) was previously described (Aquino D, et al. Journal of Neurochemistry 1990:54:1398-404). […]
Statistical analysis. […] Bioluminescence was measured by the number of days where luminescence intensity in the spinal cord exceeded a threshold of 0.5 relative to the left ear. […]

GFAP-luc [2] = assay: GFAP-luc bioluminescence imaging (BLI) in MOG-induced EAE; type: in vivo, mouse
Description: (§2) Bioluminescence Imaging (BLI). Bioluminescent signals were quantified using the In Vivo Imaging System 100 (IVIS: Xenogen, Alameda, CA) with a cold Charged Coupled Device (CCD) camera mounted in a dark box. Three animals were imaged simultaneously. Mice received an IV injection of 1 mg/kg D-luciferin (Xenogen) 2-3 minutes prior to imaging and were immediately anesthetized with vaporized isoflurane for imaging. The imaging signal was quantified in units of photons per second per centimeter squared per steradian (photons/s·cm2/sr) using […] Version 3.1 (Xenogen) software and integrated over 2 minutes. For signal quantification, photons were obtained from a “region of interest” (ROI) that covered 2.18 cm2 of contiguous forebrain and 5.27 cm2 of spinal cord region. Bioluminescence was expressed as a ratio of the total photons value from the central nervous system ROI to the photon value obtained from an equal sized area over the left ear, used as an endogenous control. In the acute EAE model, measurements were typically taken every 1-2 days and the average of 2 consecutive days readings were used. Bioluminescence imaging was performed every other day after disease onset and twice weekly during the later chronic phase of the illness.
(§3) JM4 treatment. The JM4 peptide was first dissolved in distilled water to 2 mg/ml and stored at −80° C. Immediately before use, the peptide solution was further diluted to 5 μg/200 μl with PBS. […] The EAE mice were randomly divided into a JM4 treated and a sham treated group. The JM4 treated EAE animals (4-10 per group) were treated daily with IV JM4 250 μg/kg of the peptide in PBS for 10-12 days. Control EAE animals were sham-treated with IV saline for the same time period. To evaluate the treatment effects, mice underwent BLI examination as well as clinical and histopathologic evaluation.
(§4) Statistical analysis. Data is presented as the mean±SEM. Two tailed t-tests were used to compare JM4 effects on BLI and clinical scores. The long-term effects of JM4 were studied in the relapsing EAE model by using each subject's average clinical score from day 60 onward. Bioluminescence was measured by the number of days where luminescence intensity in the spinal cord exceeded a threshold of 0.5 relative to the left ear. Survival data was examined using a two-tailed log-rank test. Values of p<0.05 were considered significant.

[3] = system: PLP-induced relapsing-remitting EAE GFAP-Luc/SJL mice; assay: Clinical scoring, relapse and survival in PLP-induced relapsing-remitting EAE; type: in vivo, mouse; conditions: for long term clinical scores compared to sham treated: for over five months, n=4 JM-4, n=5 sham, p<0.05 at day 60 onward
Description: as §1
Induction of EAE and clinical assessment of animals. […] Mice were immunized on Day 0 by subcutaneous injection on both sides of the tail base with 100 μL of an emulsion composed of either PLP139-151 or MOG35-55 peptide in an equal volume of Freund's adjuvant, supplemented with 4 mg/mL killed M. tuberculosis H37Ra (Difco Laboratories, Detroit, MI). The initial dose of antigen was 100 μg of PLP peptide for inducing relapsing EAE in SJL/J mice, or 200 μg of MOG peptide per C57BL/6 mouse for induction of acute monophasic EAE. GFAP-Luc/SJL/J mice received a second PLP antigen immunization on Day 7. Immediately following these immunizations, mice received intravenous (IV) injections of 200 ng Bordetella pertussis toxin diluted in 200 μL phosphate buffered saline (PBS) (List Biological Laboratories, Campbell, CA). The GFAP-Luc/C57BL mice received an additional IV injection of 200 ng Bordetella pertussis toxin on post-inoculation Day 2. Animals were weighed and assessed daily for clinical signs of EAE by two blinded independent observers during the acute phase of illness, and followed three times a week during the later chronic phase. The monophasic EAE MOG C57BL6 model was monitored for 28-30 days and the PLP SJL/J relapsing model was followed for nearly 6 months after immunization. The clinical scoring system used to quantify behavioral neurological deficits in the EAE mouse models (Table 2) was previously described (Aquino D, et al. Journal of Neurochemistry 1990:54:1398-404).
Immediately before use, the peptide solution was further diluted to 5 μg/200 μl with PBS. […] Control EAE animals were sham-treated with IV saline for the same time period. To evaluate the treatment effects, mice underwent BLI examination as well as clinical and histopathologic evaluation.
Statistical analysis. Data is presented as the mean±SEM. […] Bioluminescence was measured by the number of days where luminescence intensity in the spinal cord exceeded a threshold of 0.5 relative to the left ear. Survival data was examined using a two-tailed log-rank test. Values of p<0.05 were considered significant.

GFAP-luc [4] = assay: GFAP-luc bioluminescence imaging flare-ups in PLP-induced relapsing-remitting EAE; type: in vivo, mouse; conditions: for number of imaging flare ups / GFAP-luc expression compared to sham treated: relapsing-remitting EAE, brain or spinal cord
Description: as §2, §3, §4

[5] = system: SJL/J relapsing-remitting EAE mice; assay: Spinal cord histopathology (Luxol fast blue, SMI-32, mouse IgG) in SJL/J relapsing-remitting EAE; type: in vivo
Description: Histopathology. To assess CNS inflammation and demyelination at different time points after immunization, EAE mice in the JM4 peptide-treated and sham-treated groups were anesthetized and perfused with ice-cold PBS, followed by 4% paraformaldehyde into the left ventricle. Spinal cords and brain were removed. Tissues were then embedded in paraffin, sectioned and stained with Luxol-Fast Blue/PAS to determine the extent of demyelination. Five-micron paraffin sections from the high cervical, thoracic and low lumbosacral region of the spinal cord were placed on the same slide. Each slide contained a control normal spinal cord section, a sham-treated EAE cord, and spinal cord sections from JM4 treated EAE animals. Histopathologic examination was performed in blinded fashion. In addition, SMI-32 anti-neurofilament H immunohistochemical staining was completed to assess acute axonal injury (Aquino D, et al. Journal of Neurochemistry 1990:54:1398-404). In brief, 5 μm sections were de-paraffinized, treated with antigen-retrieving solution, and blocked with normal horse serum to minimize nonspecific binding. The sections were first incubated with mouse SMI-32 antibody (Sternberger Monoclonals, Lutherville, MD) diluted 1:5,000 in PBS overnight at 4° C. After two 5-minute PBS washes, the sections were incubated with biotinylated horse anti-mouse IgG (Vector Labs, Burlingame, CA), and then by horseradish peroxidase (HRP)-avidin complex (Vector Labs) for 30 minutes each. Immunostaining was visualized by reacting the sections with diaminobenzidine tetrahydrochloride (Stable DAB: Invitrogen) for 1 to 3 minutes. Excess DAB was removed by washing with distilled water and the slides were evaluated using light microscopy.

complement component C3 = assay: C3/GFAP immunohistochemistry for A1 astrocyte activation in spinal cord of MOG EAE mice; type: in vivo, mouse
Description: Spinal cord (cut into 6-7 equal pieces from cervical to sacral) was frozen and serially cut at 8 μm-thick cross sections and collected on slides, then post-fixed in acetone at −20° C. for 10 min. Sections were first treated with Target Unmasking Fluid (Pan Path) at 90° C. for 10 min, and blocked in 2% normal horse serum for 10 min. Sections were incubated overnight at 4° C. with either monoclonal rat anti-mouse C3 complement (Abcam, AB11862) at 1:50 or polyclonal rabbit anti-mouse GFAP (Dako Z0334GFAP) at 1:500. The next day sections were washed in PBS three times for 10 min each and incubated with cy3 or cy2 conjugated goat anti-mouse/rat/rabbit IgG (Jackson ImmunResearch) at 1:120 working dilution for 1 hour. Sections were washed in dH2O three times for 10 min each, followed by fluorescence microscopy imaging.
Immunohistochemistry images were obtained using an Olympus BX41 fluorescent microscope (Center Valley, PA, USA) fitted with ProgRes MF cool digital camera using 4× or 10× objectives. Half of each section from different spinal levels was quantified by measuring the percent area in the structure where label exceeded a constant threshold value using Image Pro 4.0 image analysis software (BD Biosciences, Franklin Lakes, NJ).
as §4

[6] = Hematopoietic and other side effects; conditions: acute MOG and relapsing-remitting PLP SJL/J EAE models
EAE mice = conditions: cited from earlier work
[7] = symptomatic EAE mice, literature; cited from earlier work

Sequence: GCAEHCSLNENITVPDTKV [JM-4]
- clinical score compared to sham treated [1]: significantly lower
- clinical score compared to sham treated ([1]; listed as JM4): significant reduction in clinical score
- maximum mean clinical score ([1]; JM4 250 μg/kg IV for 12 days starting day 9 post-immunization, score scale 0-6 (Table 2), sham 3.7±0.4, p<0.05): 2.25±0.3
- peak bioluminescent values in forebrain and spinal cord compared to sham treated (GFAP-luc [2]; 5 μg IV daily for 12 days from day 9, n=8, p<0.05): significantly lower
- spinal cord bioluminescence signal after start of treatment, single imaged animal (GFAP-luc [2]; FIG. 3A, treatment started day 9): virtual absence of spinal cord signal by day 4
- GFAP-luc signal returned to baseline earlier than sham-treated group (GFAP-luc [2]; MOG EAE): 3 to 4 days
- reduction of bioluminescence from peak disease scores compared with sham animals (GFAP-luc [2]; at days 11 to 12): 3-4 fold
- clinical deficit improved earlier than sham-treated animals ([3]; acute phase of the disease): 7 days
- survival ([3]; at 100 days, Kaplan-Meier, sham 50%): 100%
- average clinical score ([3]; for 130 days, 12-day course IV 5 μg/day from day 9, sham around 2): under 1
- long term clinical scores compared to sham treated [3]: remarkably reduced
- long term clinical scores compared to sham treated ([3]; listed as JM4): significantly lower
- animals remaining relapse-free by clinical scoring ([3]; throughout the 5-month experiment, sham 20%): 50%
- number of spinal cord bioluminescence flare ups (mean+/−SEM) (GFAP-luc [4]; 5 μg IV daily for 12 days, n=8 JM-4, n=7 sham, sham 10.29+/−2.447, p<0.05): 4.0+/−1.018
- average daily intensity of the bioluminescent signal versus sham-treated (GFAP-luc [4]; chronic remitting-relapsing EAE): not significantly different
- number of imaging flare ups / GFAP-luc expression compared to sham treated (GFAP-luc [4]): substantially less; also recorded: significantly decreased
- number of imaging flare ups / GFAP-luc expression compared to sham treated (GFAP-luc [4]; listed as JM4): significantly decreased
- spinal cord demyelination and axonal injury ([5]; Luxol fast blue, ventral white matter): protective against spinal cord demyelination and axonal injury
- number of injured axons (SMI-32) rimming the ventral spinal cord versus sham ([5]; mouse, in vivo): large reduction in number of injured axons
- IgG immunoreactivity in spinal cord (blood-brain barrier breakdown) ([5]; versus saline treated EAE): profoundly reduced
- C3 expression in spinal cord (complement component C3; 24 days post immunization, JM4 250 μg/kg IV 12 days from day 9, n=7 per group, EAE 17.5+/−3.7, p<0.05): 8.3+/−1.9
- attenuation of A1 astrocyte activation (complement component C3; EAE mice): over 50%
- C3 / A1 astrocyte immunoreactivity versus untreated EAE (complement component C3; spinal cord): massive reduction of C3 positive A1 astrocytes; also recorded: significant decrease in C3 immunoreactivity
- hematogenic side effects [6]: without the negative hematogenic side effects
- decrease of dendritic cells (EAE mice; EAE mice): ten-fold
- mononuclear cells count (EAE mice; EAE mice): reduced elevated mononuclear cells count to normal
- proinflammatory cytokines including IL-2, IL-6, TNF-alpha and INF-gamma (EAE mice; EAE mice): decreased proinflammatory cytokines
- T helper Th 17 positive cells (EAE mice; SJL/J EAE mice): reduce T helper Th 17 positive cells
- Treg cells (EAE mice; SJL/J EAE mice): expand Treg cells
- tissue protective properties (EAE mice; symptomatic EAE mice, literature): robust EPO-like tissue protective properties
- erythropoietic activity [7]: without the activities responsible for excessive erythropoiesis
